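Briefly, cells in 96-well plates were exposed to five compound concentrations for 48 h, and endpoints were estimated by linear interpolation. Abbreviation: GI50, concentration required for 50% inhibition of growth. TGI marks complete inhibition of growth.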
test system: MDA-MB-468 breast; test: inhibition of tumour cell growth, NCI panel, 48 h

How did the GI50 turn out when `COc1cc2c(cc1OC)C(=O)/C(=C/c1cc(-c3ccc4c(c3)OCO4)n[nH]1)C2` was run?
The GI50 was 1.07 µM.

And the TGI?
Its TGI is 2.41 µM.

What does the source list for `Cc1nc(Nc2cccnc2)sc1C(=O)/C=C/c1ccc(Cl)cc1`?
GI50: 2.89 µM; TGI: 8.48 µM

For `c1ccc2c(-c3nc(-c4c[nH]c5ccncc45)cs3)c[nH]c2c1`, which GI50 is on record?
The GI50 was 0.226 µM.

What about the TGI of the same molecule?
The TGI was 1.51 µM.

For `COc1ccc(-c2nc(-c3nc4ccc(F)cc4[nH]3)c3ccccn23)cc1`, which GI50 is on record?
Its GI50 is 4.12 µM.

And the TGI?
The TGI was 57.1 µM.

`c1ccc(-c2nc(N3CCOCC3)c3c4c(sc3n2)CCCCCC4)nc1` was tested. Which GI50 did it give?
Its GI50 is 4.12 µM.

And the TGI?
Its TGI is 19 µM.

What does the source list for `COc1cc(C)c(C2NC(=O)c3ccccc3N2)cc1C` (stereo unspecified)?
GI50: 0.754 µM; TGI: > 100 µM

What does the source list for `C=CC(=O)Nc1cc(N2CCN(CC)CC2)ccc1Nc1cc(N(C)C(=O)Nc2c(Cl)c(OC)cc(OC)c2Cl)ncn1`?
GI50: 1.68 µM; TGI: 4.16 µM

How did the GI50 turn out when `COc1cnc2c(c1)C(=O)c1c-2n(CCCNCCO)c(=O)c2ccncc12` was run?
Its GI50 is 0.283 µM.

What about the TGI of the same molecule?
Its TGI is 1.65 µM.

Which GI50 does the source give for `COc1cc(NC(=O)CCSc2nc3ccc(C)cc3c(=O)n2Cc2ccccc2)cc(OC)c1OC` here?
The GI50 was 5.39 µM.

And the TGI?
Its TGI is > 100 µM.

Which results are given for `COc1ccc2[nH]c(O)c(/C=c3/cc4c(c(-c5ccc(F)c(OC)c5)n3)=Nc3ccccc3-4)c2c1`?
GI50: 1.43 µM; TGI: 2.94 µM

With `CCN=C1C=CC(=C(c2ccc(N(CC)CC)cc2)c2ccc(N(CC)CC)cc2)c2ccccc21` as the molecule, how does the GI50 read?
The GI50 was 0.0302 µM.

What about the TGI of the same molecule?
Its TGI is 0.228 µM.

For `C=C1CCC2(C#N)[C@H]3[C@H](CC[C@@H]2C)[C@@H](C)C[C@@H](CC(C)(C)NC(=O)CN2CCC2=O)[C@H]13` (stereo partly specified), which GI50 is on record?
Its GI50 is 3.22 µM.

What about the TGI of the same molecule?
Its TGI is 22.9 µM.

For `O=P1(S)OC[C@H]2O[C@@H]3[C@H](F)[C@@H]2OP(O)(=S)OC[C@H]2O[C@H]([C@H](F)[C@@H]2O1)n1cnc2c(ncnc21)NC/C=C/CNc1ncnc2c1ncn23` (stereo partly specified), which GI50 is on record?
The GI50 was 11.5 µM.

What about the TGI of the same molecule?
Its TGI is > 100 µM.

Which results are given for `CCN(c1cc(-c2ccc(CN3CCOCC3)cc2)cc(C(=O)NCc2c(C)cc(C)[nH]c2=O)c1C)C1CCOCC1`?
GI50: 13.4 µM; TGI: 30.4 µM

How did the GI50 turn out when `Cc1nc2ccc(NC(=O)CCNC(=O)CCCc3ccc(CC(C(=O)O)C(=O)O)cc3)cc2s1` was run?
The GI50 was > 100 µM.

And the TGI?
Its TGI is > 100 µM.

How did the GI50 turn out when `Cc1ccc(S(=O)(=O)c2nc(-c3ccccc3)oc2S(C)=O)cc1` (stereo unspecified) was run?
Its GI50 is 0.52 µM.

And the TGI?
Its TGI is 2.15 µM.

What does the source list for `O=C(Oc1ccc(CO[N+](=O)[O-])cc1)c1ccccc1`?
GI50: 0.146 µM; TGI: 0.332 µM

For `CSCCCNC(=O)c1ccc2c(c1)/C(=C/c1[nH]c(C)cc1C)C(=O)N2`, which GI50 is on record?
The GI50 was 0.481 µM.

And the TGI?
The TGI was > 100 µM.

`Cc1cc(O)c(C2=NN(c3ccc(S(N)(=O)=O)cc3)C(c3ccc(Cl)cc3)C2)c(C)c1Cl` (stereo unspecified) was tested. Which GI50 did it give?
The GI50 was 10.7 µM.

What about the TGI of the same molecule?
Its TGI is 24.6 µM.

How did the GI50 turn out when `C#Cc1nc2ccccc2c(=O)[nH]1` was run?
The GI50 was 0.199 µM.

And the TGI?
Its TGI is 0.486 µM.

Which GI50 does the source give for `COc1ccc(C(O)c2cc3c(N)c(C(=O)Nc4cccc(Cl)c4)sc3nc2C)cc1` (stereo unspecified) here?
Its GI50 is 0.286 µM.

And the TGI?
The TGI was 28.4 µM.

How did the GI50 turn out when `Cc1nn2c(/C=C3/C(=O)Nc4cc(Cl)ccc43)c(-c3ccccc3)nc2s1` was run?
The GI50 was 27.7 µM.

What about the TGI of the same molecule?
The TGI was > 100 µM.

What does the source list for `COc1ccc(C(=O)NNc2nc(Cl)nc(N3CCN(C(c4ccccc4)c4ccccc4)CC3)n2)cc1`?
GI50: 2.5 µM; TGI: 47.5 µM

Which results are given for `Cn1cc(-c2ccc3nnc(Sc4ccc5ncccc5c4)n3n2)cn1`?
GI50: 16.4 µM; TGI: > 91.4 µM

Which GI50 does the source give for `OCc1ccc(-c2cscc2-c2ccc(CO)o2)o1` here?
The GI50 was 0.074 µM.

What about the TGI of the same molecule?
The TGI was 0.281 µM.

Which results are given for `O=c1[nH]c2nc(NC3CCOCC3)ncc2cc1Oc1ccc(F)cc1F`?
GI50: > 25 µM; TGI: > 25 µM

With `O=C(Nc1ccc(-c2nc(-c3cccc(OCCN4CCOCC4)c3)c(-c3ccnc(Br)c3)[nH]2)cc1)c1ccccc1` as the molecule, how does the GI50 read?
Its GI50 is 1.77 µM.

What about the TGI of the same molecule?
The TGI was 5.7 µM.

Which GI50 does the source give for `Cc1nc(Nc2ccccn2)sc1C(=O)/C=C/c1ccc(Cl)cc1` here?
Its GI50 is 0.395 µM.

And the TGI?
The TGI was 5.7 µM.

Which results are given for `C1=C2CCCC3=Cc4ccccc4OC23Oc2ccccc21`?
GI50: 5.42 µM; TGI: 69.1 µM

With `Cc1c2cc(Cl)c3ccccc3c2c[n+]2ccccc12` as the molecule, how does the GI50 read?
The GI50 was 0.165 µM.

And the TGI?
Its TGI is 0.57 µM.

`O=C([O][Sn]([O]C(=O)c1ccccn1)([c]1ccccc1)[c]1ccccc1)c1ccccn1` was tested. Which GI50 did it give?
Its GI50 is 1.45 µM.

And the TGI?
The TGI was 2.76 µM.

Which results are given for `Cc1nc2c(n1C)C(=O)c1ccccc1C2=O`?
GI50: 25.1 µM; TGI: > 100 µM

What does the source list for `O=C1CCC(N2C(=O)c3ccccc3C2=O)C(=O)N1` (stereo unspecified)?
GI50: > 100 µM; TGI: > 100 µM

`NCCOCCOCCNc1nc(-c2ccc(Cl)cc2)nc(N2CCN(c3ccccn3)CC2)n1` was tested. Which GI50 did it give?
The GI50 was 1.95 µM.

What about the TGI of the same molecule?
Its TGI is 3.99 µM.

How did the GI50 turn out when `O=c1cc(N/N=C/c2ccc(F)cc2)c2cc(Cl)ccc2[nH]1` was run?
Its GI50 is 13.3 µM.

What about the TGI of the same molecule?
The TGI was 49.1 µM.

With `O=C(NCCc1ccccn1)OCc1nc2nc(Cl)nc(N3CCOCC3)c2[nH]1` as the molecule, how does the GI50 read?
The GI50 was 1.35 µM.

And the TGI?
The TGI was 2.88 µM.

Which results are given for `Cn1cc(C2=C(c3cn(C)c4ccc(Cl)cc34)C(=O)NC2=O)c2ccccc21`?
GI50: 2.86 µM; TGI: 22 µM

What does the source list for `CS(=O)(=O)Nc1cc(-c2ccc3ncc(C#N)c(NCc4ccccc4O)c3c2)cnc1Cl`?
GI50: 0.173 µM; TGI: 1.68 µM

— PubChem BioAssay (NCI)
